Experimental data reported in patent publication EP0474874B1, “Maillard Reaction inhibitor compositions” (Senju Pharmaceutical Co., Ltd., priority 1990, dated 1991).

How the values were obtained:
furosine formation = experiment: Inhibition of furosine formation (non-enzymatic glycosylation of BSA with glucose, HPLC); format: biochemical, bovine; details: 5 mM test compound, 20 mg/ml BSA, 50 mM glucose, 50 mM phosphate buffer pH 7.3, 4 weeks at 37 °C
Method: Sample solutions as shown below were aseptically prepared from bovine serum albumine (No. A-8022, Sigma)(hereinafter referred to as BSA), 50 mM phosphate buffer solution (pH 7.3) and the test compounds listed in Table 1 and aminoguanidine.
The sample solutions were kept for 4 weeks at 37 °C, and the amount of furosine which was formed by non-enzymatic glycosylation was determined by HPLC according to the method of Schleicher et al. [J. Clin. Biochem., 19:81-87 (1981).] Thus, the sample solutions after reaction were dialyzed, and aliquots of 1 ml were lyophylized and then hydrolyzed by the addition of 1 ml of 6 N hydrochloric acid followed by heating at 100 °C for 20 hours. After removal of hydrochloric acid by evaporation, 1 ml of water was added to each sample, and the samples were subjected to filtration using a filter with the pore size of 0.45 µm. The filtrate was used as the sample for HPLC. ODS-120T (Tosoh Corporation) was used for the column and 7 mM phosphoric acid solution was used as the eluant. The absorbance peak whose ratio of peak area at […] was 3.9/1 was regarded as the peak corresponding to furosine.
Upon the area of the peak of furosine of each sample, the inhibition rate of furosine formation by the test compound was calculated as follows. Inhibition rate (%)=(c-d)÷(c-n)×100 [formula] c; peak area of furosine of the control sample d; peak area of furosine of the test sample n; peak area of furosine of the normal sample

[1] = patient suffering from diabetes mellitus; cited from earlier work
Maillard's reaction = details: in vitro; cited from earlier work
[2] = test system: AGE formation in arterial walls; details: diabetic rats, in vivo; cited from earlier work

SMILES	Inhibition rate (%) (furosine formation)	other results
Nc1ccc(O)cc1C(=O)O [AB-1, 5-hydroxyanthranilic acid]	94.1%	
Nc1c(O)cccc1C(=O)O [AB-2, 3-hydroxyanthranilic acid]	69.4%	
Nc1cc([N+](=O)[O-])ccc1C(=O)O [AB-3, 4-nitroanthranilic acid]	47.6%	
Nc1ccc(O)c(C(=O)O)c1 [AB-4, 5-aminosalicylic acid]	50.7%	
Nc1ccc(C(=O)O)c(O)c1 [AB-5, 4-aminosalicylic acid]	70.0%	adverse effect upon treatment [1]: developed hypoglycaemic coma
Nc1cccc(C(=O)O)c1O [AB-6, 3-aminosalicylic acid]	53.4%	
Nc1cc(C(=O)O)ccc1O [AB-7, 3-amino-4-hydroxybenzoic acid]	60.4%	
N=C(N)NN [aminoguanidine]	8.0%	inhibition of Maillard's reaction (Maillard's reaction): inhibits Maillard's reaction in vitro; AGE formation in arterial walls [2]: suppresses AGE formation in arterial walls of diabetic rats in vivo
